20 compounds from US20090029992A1, “SUBSTITUTED PYRAZOLE COMPOUNDS” (priority 2007, published 2009) can be followed below.

One test concerns the target T1, recombinant Aurora A (Homo sapiens, UniProt O14965).
T1 construct: purchased Upstate, Lake Placid, N.Y
T1 sequence (O14965 1-403): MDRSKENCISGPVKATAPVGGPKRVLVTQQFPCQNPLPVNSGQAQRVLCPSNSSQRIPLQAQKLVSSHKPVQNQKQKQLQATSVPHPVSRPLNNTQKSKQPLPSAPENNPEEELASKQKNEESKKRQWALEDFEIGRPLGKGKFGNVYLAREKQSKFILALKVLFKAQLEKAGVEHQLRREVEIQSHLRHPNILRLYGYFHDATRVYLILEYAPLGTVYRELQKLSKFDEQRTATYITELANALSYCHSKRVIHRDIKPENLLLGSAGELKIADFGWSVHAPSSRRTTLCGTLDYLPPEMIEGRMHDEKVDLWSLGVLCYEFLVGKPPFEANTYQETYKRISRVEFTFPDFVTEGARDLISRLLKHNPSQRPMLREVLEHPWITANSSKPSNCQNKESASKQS
Kind of test: Aurora A (Aurora 2) inhibition assay, Z'-Lyte kinase assay. Type of test: biochemical. The note with it: ATP 10 μM, 1 h. A digest of the protocol:
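Z'-Lyte FRET assay: Aurora A (200-500 ng/mL final), Ser/Thr 1 peptide (2 μM) and ATP (10 μM) in 50 mM HEPES pH 7.5, 10 mM MgCl2, 5 mM EGTA, 0.05% Brij-35, 2 mM DTT, 1 h at room temperature. Coumarin/fluorescein emission ratio converted to percent phosphorylation; dose-response curves plotted.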

The target in test [1] is T2, N-terminal GST-tagged recombinant human Flt3, residues 564-end (Homo sapiens, UniProt P36888).
T2 construct: recombinant human Flt3, residues 564-end; GST (N); purchased Upstate USA Inc, 706 Forest Street, Charlottesville, Va
T2 sequence (P36888 564-993 limits assumed): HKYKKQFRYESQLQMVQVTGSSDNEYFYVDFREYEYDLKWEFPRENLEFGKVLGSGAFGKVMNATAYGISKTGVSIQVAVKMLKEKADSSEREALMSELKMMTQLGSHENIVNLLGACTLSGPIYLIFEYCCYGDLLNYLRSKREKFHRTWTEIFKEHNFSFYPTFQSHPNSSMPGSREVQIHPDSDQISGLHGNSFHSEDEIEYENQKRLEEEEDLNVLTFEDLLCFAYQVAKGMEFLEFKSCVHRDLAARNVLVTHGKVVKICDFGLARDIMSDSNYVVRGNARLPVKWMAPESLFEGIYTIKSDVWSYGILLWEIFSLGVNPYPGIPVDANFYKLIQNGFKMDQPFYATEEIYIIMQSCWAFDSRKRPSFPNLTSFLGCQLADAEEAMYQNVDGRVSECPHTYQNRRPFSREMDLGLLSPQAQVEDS
Kind of test: Flt3 kinase inhibition assay (33P-ATP filter assay). The settings on record: 40 minutes at room temperature. It is filed as biochemical. A digest of the protocol: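 Serial compound dilutions incubated 40 min at room temperature with 5-10 mU Flt3 kinase, 50 μM peptide substrate and [γ-33P]ATP/10 mM magnesium acetate, pH 7.0. Phosphoric acid stop, filter capture and scintillation counting; activity compared with uninhibited reactions.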

Setting [2] is: group with IC50 greater than 100 nM.

One may read the IC50 as the midpoint of a concentration-inhibition curve. For `Cc1cc(Nc2cc(N3CCN(C)CC3)nc(-c3cccc([N+](=O)[O-])c3)n2)n[nH]1` [Example 162, N-(5-methyl-1H-pyrazol-3-yl)-6-(4-methylpiperazin-1-yl)-2-(3-nitrophenyl)pyrimidin-4-amine], the concentration for half-maximal inhibition (IC50) (on recombinant Aurora A; in test [1]) was at most 100 nM in each case.

Turning to `Cc1cc(Nc2cc(N3CCN(C)CC3)nc(-c3ccc(C(C)(C)C)cc3)n2)n[nH]1` [Compound 82, 2-(4-tert-butylphenyl)-N-(5-methyl-1H-pyrazol-3-yl)-6-(4-methylpiperazin-1-yl)pyrimidin-4-amine], the IC50 (at recombinant Aurora A; in test [1]) was at most 100 nM throughout.

As for `Cc1cc(Nc2cc(NC3CCOCC3)nc(-c3ccc(-c4ccccc4)cc3)n2)n[nH]1` [Example 158, 2-(biphenyl-4-yl)-N^4-(5-methyl-1H-pyrazol-3-yl)-N^6-(tetrahydro-2H-pyran-4-yl)pyrimidine-4,6-diamine], the IC50 at recombinant Aurora A (setting [2]) was at most 1000 nM; in test [1] it was at most 100 nM.

As for `Cc1cc(Nc2cc(NC3CCOCC3)nc(-c3cccc(F)c3)n2)n[nH]1` [Compound 20, 2-(3-fluorophenyl)-N^4-(5-methyl-1H-pyrazol-3-yl)-N^6-(tetrahydro-2H-pyran-4-yl)pyrimidine-4,6-diamine], the IC50 (at recombinant Aurora A; in test [1]) was at most 100 nM in each case.

Take `COc1cccc(-c2nc(Nc3cc(C)[nH]n3)cc(N3CCN(C)CC3)n2)c1` [Compound 42, 2-(3-methoxyphenyl)-N-(5-methyl-1H-pyrazol-3-yl)-6-(4-methylpiperazin-1-yl)pyrimidin-4-amine]: the IC50 (at recombinant Aurora A; in test [1]) was at most 100 nM each time.

In the case of `Cc1cc(Nc2cc(N3CCN(C)CC3)nc(-c3cccc(N(C)C)c3)n2)n[nH]1` [Compound 86, 2-(3-(dimethylamino)phenyl)-N-(5-methyl-1H-pyrazol-3-yl)-b-(4-methylpiperazin-1-yl)pyrimidin-4-amine], the IC50 (on recombinant Aurora A; in test [1]) was at most 100 nM each time.

For the compound `Cc1cc(Nc2cc(N(C)CCN(C)C)nc(-c3cccc4ccoc34)n2)n[nH]1` [Example 205, 2-(benzofuran-7-yl)-N^4-(2-(dimethylamino)ethyl)-N^4-methyl-N^6-(5-methyl-1H-pyrazol-3-yl)pyrimidine-4,6-diamine], the IC50 at recombinant Aurora A (setting [2]) was at most 1000 nM; in test [1], at most 100 nM.

With `COc1ccc(F)c(-c2nc(Nc3cc(C)[nH]n3)cc(N3CCN(C)CC3)n2)c1` [Example 197, 2-(2-fluoro-5-methoxyphenyl)-N-(5-methyl-1H-pyrazol-3-yl)-6-(4-methylpiperazin-1-yl)pyrimidin-4-amine], the IC50 (at recombinant Aurora A; in test [1]) was at most 100 nM each time.

Consider `Cc1cc(Nc2cc(N3CCN(C)CC3)nc(-c3cccc(F)c3)n2)n[nH]1` [Compound 33, 2-(3-fluorophenyl)-N-(5-methyl-1H-pyrazol-3-yl)-6-(4-methylpiperazin-1-yl)pyrimidin-4-amine], for which the IC50 (on recombinant Aurora A; in test [1]) was at most 100 nM each time.

Consider `CCc1ccccc1-c1nc(Nc2cc(C)[nH]n2)cc(N2CCN(C)CC2)n1` [Example 175, 2-(2-ethylphenyl)-N-(5-methyl-1H-pyrazol-3-yl)-6-(4-methylpiperazin-1-yl)pyrimidin-4-amine], for which the IC50 at recombinant Aurora A (setting [2]) is at most 1000 nM; in test [1], at most 100 nM.

As to `COC(=O)c1cccc(-c2nc(Nc3cc(C)[nH]n3)cc(N3CCN(C)CC3)n2)c1` [Example 166, methyl 3-(4-(5-methyl-1H-pyrazol-3-ylamino)-6-(4-methylpiperazin-1-yl)pyrimidin-2-yl)benzoate], the IC50 (on recombinant Aurora A; in test [1]) was at most 100 nM in each case.

Turning to `Cc1ccc(-c2nc(Nc3cc(C)[nH]n3)cc(N3CCN(C)CC3)n2)cc1` [Compound 38, N-(5-methyl-1H-pyrazol-3-yl)-6-(4-methylpiperazin-1-yl)-2-p-tolylpyrimidin-4-amine], the IC50 (on recombinant Aurora A; in test [1]) was at most 100 nM each time.

As to `Cc1cc(Nc2cc(N3CCN(C)CC3)nc(-c3cccc(C(F)(F)F)c3)n2)n[nH]1` [Compound 101, N-(5-methyl-1H-pyrazol-3-yl)-6-(4-methylpiperazin-1-yl)-2-(3-(trifluoromethyl)phenyl)pyrimidin-4-amine], the IC50 (at recombinant Aurora A; in test [1]) was at most 100 nM throughout.

As for `Cc1cc(Nc2cc(N3CCN(C)CC3)nc(-c3ccccc3)n2)n[nH]1` [Compound 8, N-(5-methyl-1H-pyrazol-3-yl)-6-(4-methylpiperazin-1-yl)-2-phenyl pyrimidin-4-amine], the IC50 (on recombinant Aurora A; in test [1]) was at most 100 nM in each case.

Turning to `Cc1cc(Nc2cc(N3CCN(C)CC3)nc(-c3ccc4ccccc4c3)n2)n[nH]1` [Example 135, N-(5-methyl-1H-pyrazol-3-yl)-6-(4-methylpiperazin-1-yl)-2-(naphthalen-2-yl)pyrimidin-4-amine], the IC50 (at recombinant Aurora A; in test [1]) was at most 100 nM in each case.

Consider `Cc1cccc(-c2nc(Nc3cc(C)[nH]n3)cc(N(C)CCN(C)C)n2)c1` [Compound 52, N^4-(2-(dimethylamino)ethyl)-N^4-methyl-N^6-(5-methyl-1H-pyrazol-3-yl)-2-m-tolylpyrimidine-4,6-diamine], for which the IC50 at recombinant Aurora A (setting [2]) was at most 1000 nM; in test [1], at most 100 nM.

Regarding `Cc1cc(Nc2cc(N3CCN(C)CC3)nc(-c3ccccc3Cl)n2)n[nH]1` [Compound 37, 2-(2-chlorophenyl)-N-(5-methyl-1H-pyrazol-3-yl)-6-(4-methylpiperazin-1-yl)pyrimidin-4-amine], the values for the IC50 (on recombinant Aurora A (setting [2]); in test [1]) were at most 1000 nM and at most 100 nM, respectively.

As to `Cc1cc(Nc2cc(N3CCN(C)CC3)nc(-c3cc4ccccc4o3)n2)n[nH]1` [Compound 1, 2-(benzofuran-2-yl)-N-(5-methyl-1H-pyrazol-3-yl)-6-(4-methylpiperazin-1-yl)pyrimidin-4-amine], the IC50 (on recombinant Aurora A; in test [1]) was at most 100 nM throughout.

Turning to `COc1ccc(-c2nc(Nc3cc(C)[nH]n3)cc(N3CCN(C)CC3)n2)cc1` [Compound 41, 2-(4-methoxyphenyl)-N-(5-methyl-1H-pyrazol-3-yl)-6-(4-methylpiperazin-1-yl)pyrimidin-4-amine], the IC50 (on recombinant Aurora A; in test [1]) was at most 100 nM each time.

Consider `Cc1cc(Nc2cc(N3CCN(C)CC3)nc(-c3cccc(Cl)c3)n2)n[nH]1` [Compound 36, 2-(3-chlorophenyl)-N-(5-methyl-1H-pyrazol-3-yl)-6-(4-methylpiperazin-1-yl)pyrimidin-4-amine], for which the IC50 (on recombinant Aurora A; in test [1]) was at most 100 nM each time.
